Test results: patent US12577206B2 (BRISTOL-MYERS SQUIBB COMPANY, priority 2020, dated 2026)

What was measured:
human FPR2 = biological target: T1, human FPR2 (Homo sapiens, UniProt P25090); assay: FPR2 cyclic adenosine monophosphate (cAMP) assay; type: cell-based; conditions: CHO cells overexpressing human FPR2; forskolin 5 μM; inhibition of cAMP production; HTRF; read-out: hFPR2 cAMP2 EC50
T1 sequence (P25090 1-351): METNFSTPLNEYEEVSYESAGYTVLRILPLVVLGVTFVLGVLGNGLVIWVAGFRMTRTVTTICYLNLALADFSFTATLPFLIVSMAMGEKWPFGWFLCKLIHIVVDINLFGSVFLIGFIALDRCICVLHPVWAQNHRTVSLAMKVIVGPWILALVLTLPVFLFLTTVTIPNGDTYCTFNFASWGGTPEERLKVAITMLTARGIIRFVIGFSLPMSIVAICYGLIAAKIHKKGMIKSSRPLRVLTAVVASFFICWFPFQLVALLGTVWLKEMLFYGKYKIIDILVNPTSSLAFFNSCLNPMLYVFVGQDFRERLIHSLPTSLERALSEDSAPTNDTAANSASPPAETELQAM
How it was run: (§1)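 Gi-coupled activity is read as suppression of forskolin-stimulated cAMP (10 μM final for FPR1, 5 μM final for FPR2; IBMX 200 μM final) in recombinant CHO cells, 30 min incubation at rt, HTRF detection.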

human FPR1 = biological target: T2, human FPR1 (Homo sapiens, UniProt P21462); assay: FPR1 cyclic adenosine monophosphate (cAMP) assay; type: cell-based; conditions: CHO cells overexpressing human FPR1; forskolin 10 μM; inhibition of cAMP production; HTRF; read-out: hFPR1 cAMP2 EC50
T2 sequence (P21462 1-350): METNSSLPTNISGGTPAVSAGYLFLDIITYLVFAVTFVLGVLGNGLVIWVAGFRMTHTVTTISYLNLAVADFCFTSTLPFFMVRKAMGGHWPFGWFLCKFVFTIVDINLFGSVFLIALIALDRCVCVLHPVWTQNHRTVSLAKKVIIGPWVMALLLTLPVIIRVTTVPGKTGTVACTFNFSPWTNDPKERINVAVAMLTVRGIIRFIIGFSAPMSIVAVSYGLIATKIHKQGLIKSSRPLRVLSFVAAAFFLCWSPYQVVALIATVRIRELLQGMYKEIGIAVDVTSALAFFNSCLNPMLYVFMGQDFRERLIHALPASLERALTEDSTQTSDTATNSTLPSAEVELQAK
How it was run: as §1

Work on `COc1cc(F)c(-c2c(NC(=O)c3ccc(OC(F)F)cc3)c(=O)n(-c3cc(Cl)cc(Cl)c3)n2C)c(F)c1` [Example 127, N-[2-(3,5-dichlorophenyl)-5-(2,6-difluoro-4-methoxyphenyl)-1-methyl-3-oxo-2,3-dihydro-1H-pyrazol-4-yl]-4-(difluoromethoxy)benzamide] yielded an EC50 (human FPR2) of 8 nM and an EC50 (human FPR1) of over 10000 nM.
`COc1cc(N2C[C@H]3C[C@@H]2CN3C)nc(-n2c(=O)c(NC(=O)c3ccc(OC(F)F)cc3)c(-c3c(F)cc(OC)cc3F)n2C)c1` [Example 354, N-(5-(2,6-Difluoro-4-methoxyphenyl)-2-(4-methoxy-6-((1R,4R)-5-methyl-2,5-diazabicyclo[2.2.1]heptan-2-yl)pyridin-2-yl)-1-methyl-3-oxo-2,3-dihydro-1H-pyrazol-4-yl)-4-(difluoromethoxy)benzamide] was tested, and the EC50 (human FPR2) was 2 nM and the EC50 (human FPR1) was over 10000 nM.
`COc1cc(F)c(-c2c(NC(=O)c3ccc(Cl)nc3)c(=O)n(-c3ccccc3)n2C)c(F)c1` [Example 25, 6-chloro-N-[5-(2,6-difluoro-4-methoxyphenyl)-1-methyl-3-oxo-2-phenyl-2,3-dihydro-1H-pyrazol-4-yl]pyridin-3-carboxamide] gave an EC50 (human FPR2) of 280 nM and an EC50 (human FPR1) of over 10000 nM.
Compound `COc1cc(F)c(-c2c(NC(=O)c3ccc(OC(F)(F)F)cc3)c(=O)n(-c3cccc(OC(F)F)n3)n2C)c(F)c1` [Example 169, N-[5-(2,6-difluoro-4-methoxyphenyl)-2-[6-(difluoromethoxy)pyridin-2-yl]-1-methyl-3-oxo-2,3-dihydro-1H-pyrazol-4-yl]-4-(trifluoromethoxy)benzamide] has an EC50 (human FPR2) of 15 nM and an EC50 (human FPR1) of 1400 nM.
